From ChEMBL document CHEMBL1201862, “PubChem BioAssay data set” (2004)
Blank lines part the entries; values can stand above or below the compound they belong to. Active and inactive are the calls of the source.

How the values were obtained:
[1] = tested on: HEK293; test: HEK293T cell viability loss, resazurin readout – resazurin fluorescence, cytotoxicity control for NF-kB activator project, SAR follow-up (AID 493251); assay type: functional, cell-based; conditions: Homo sapiens
[2] = HEK-293T cell viability reduction – luminescence, B-cell screen hits, cytotoxicity control for BCR NF-kB inhibitor project, dose response (AID 489021); assay type: functional, cell-based;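 also: HEK-293T cells carrying an NF-kB luciferase reporter; cells exposed to compound for about 14 hours before viability readout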
[3] = tested on: HEK293; test: SAR Analysis of small molecule inhibitors of B-cell specific antigen receptor-induced NF-kB activation in a HEK-293T cell line using a luminescence assay - Set 2. [Related pubchem assays (depositor defined):AID435022, AID435025, AID489021]; assay type: functional, cell-based; conditions: Homo sapiens
[4] = tested on: Jurkat; test: SAR Analysis of small molecule inhibitors of […] specific antigen receptor-induced NF-kB activation in a Jurkat cell line using a luminescence assay - Set 3. [Related pubchem assays (depositor defined):AID435022, AID435025, AID465]; assay type: functional, cell-based; conditions: Homo sapiens
[5] = biological target: Trypsin (Sus scrofa, UniProt P00761); test: trypsin protease activity blockade – biochemical, quenched peptide fluorescence, cherry-pick, selectivity assay for Rce1 protease inhibitor project, dose response (AID 488789)
Trypsin, sequence (P00761 whole entry): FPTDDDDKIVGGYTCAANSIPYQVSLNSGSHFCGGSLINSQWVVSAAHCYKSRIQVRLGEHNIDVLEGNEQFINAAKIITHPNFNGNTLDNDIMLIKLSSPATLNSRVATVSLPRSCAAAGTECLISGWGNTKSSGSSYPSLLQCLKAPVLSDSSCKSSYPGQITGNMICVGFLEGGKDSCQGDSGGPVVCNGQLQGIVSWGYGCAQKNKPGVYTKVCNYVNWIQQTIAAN

[6] = biological target: CAAX prenyl protease 1 (Saccharomyces cerevisiae S288c, UniProt P47154); test: yeast CAAX protease Ste24 inhibition – biochemical, S. cerevisiae, plate reader, cherry-pick, dose response (AID 488815)
CAAX prenyl protease 1, sequence (P47154 whole entry): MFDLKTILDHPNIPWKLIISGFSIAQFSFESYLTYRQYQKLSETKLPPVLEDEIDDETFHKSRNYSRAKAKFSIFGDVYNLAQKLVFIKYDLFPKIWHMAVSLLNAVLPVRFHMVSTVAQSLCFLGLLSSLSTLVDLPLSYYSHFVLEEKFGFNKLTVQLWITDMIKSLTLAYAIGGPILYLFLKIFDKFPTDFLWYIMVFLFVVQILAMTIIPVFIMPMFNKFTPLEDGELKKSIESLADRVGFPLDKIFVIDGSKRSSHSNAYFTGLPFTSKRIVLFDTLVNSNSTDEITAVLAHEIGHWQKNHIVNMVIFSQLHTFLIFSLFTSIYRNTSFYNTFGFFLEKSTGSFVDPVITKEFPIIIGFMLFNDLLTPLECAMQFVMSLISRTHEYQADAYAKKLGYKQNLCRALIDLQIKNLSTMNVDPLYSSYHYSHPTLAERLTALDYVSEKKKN

[7] = biological target: T1, Cytochrome P450 2D6 (Homo sapiens, UniProt P10635);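 also: CYP2D6 member of a cytochrome P450 panel assay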
T1 sequence (P10635 whole entry): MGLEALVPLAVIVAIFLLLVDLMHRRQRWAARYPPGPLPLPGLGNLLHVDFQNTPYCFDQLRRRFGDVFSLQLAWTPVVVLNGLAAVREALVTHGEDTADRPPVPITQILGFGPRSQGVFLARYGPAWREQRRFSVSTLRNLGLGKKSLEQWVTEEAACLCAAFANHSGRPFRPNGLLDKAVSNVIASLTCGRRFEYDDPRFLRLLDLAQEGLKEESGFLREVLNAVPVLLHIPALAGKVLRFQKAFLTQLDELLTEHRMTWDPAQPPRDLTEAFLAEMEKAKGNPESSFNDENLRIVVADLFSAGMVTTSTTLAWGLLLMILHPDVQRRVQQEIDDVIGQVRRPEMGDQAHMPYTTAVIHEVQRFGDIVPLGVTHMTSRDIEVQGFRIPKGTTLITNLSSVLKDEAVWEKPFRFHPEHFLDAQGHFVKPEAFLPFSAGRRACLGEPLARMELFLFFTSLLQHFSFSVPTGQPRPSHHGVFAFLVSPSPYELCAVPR

[8] = NIH-3T3 fibroblast cytotoxicity, dose response, cytotoxicity control, cell-based, fluorescence, Alamar Blue, secondary assay (AID 2327); assay type: functional;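 also: NIH-3T3 mouse fibroblasts cultured with fluconazole at 8 µg/mL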
[9] = biological target: ATP-dependent molecular chaperone HSP82 (Candida albicans (strain WO-1) (Yeast), UniProt C4YTQ8); test: steroid-induced GRE reporter decrease in yeast – S. cerevisiae, luminescence, Hsp90 inhibitor project, dose response (AID 2400); assay type: functional, cell-based;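 also: beta-galactosidase luminescence from glucocorticoid response element reporter as proxy for Hsp90 function; inhibitor potency where signal loss means Hsp90 inhibition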
ATP-dependent molecular chaperone HSP82, sequence (C4YTQ8 whole entry): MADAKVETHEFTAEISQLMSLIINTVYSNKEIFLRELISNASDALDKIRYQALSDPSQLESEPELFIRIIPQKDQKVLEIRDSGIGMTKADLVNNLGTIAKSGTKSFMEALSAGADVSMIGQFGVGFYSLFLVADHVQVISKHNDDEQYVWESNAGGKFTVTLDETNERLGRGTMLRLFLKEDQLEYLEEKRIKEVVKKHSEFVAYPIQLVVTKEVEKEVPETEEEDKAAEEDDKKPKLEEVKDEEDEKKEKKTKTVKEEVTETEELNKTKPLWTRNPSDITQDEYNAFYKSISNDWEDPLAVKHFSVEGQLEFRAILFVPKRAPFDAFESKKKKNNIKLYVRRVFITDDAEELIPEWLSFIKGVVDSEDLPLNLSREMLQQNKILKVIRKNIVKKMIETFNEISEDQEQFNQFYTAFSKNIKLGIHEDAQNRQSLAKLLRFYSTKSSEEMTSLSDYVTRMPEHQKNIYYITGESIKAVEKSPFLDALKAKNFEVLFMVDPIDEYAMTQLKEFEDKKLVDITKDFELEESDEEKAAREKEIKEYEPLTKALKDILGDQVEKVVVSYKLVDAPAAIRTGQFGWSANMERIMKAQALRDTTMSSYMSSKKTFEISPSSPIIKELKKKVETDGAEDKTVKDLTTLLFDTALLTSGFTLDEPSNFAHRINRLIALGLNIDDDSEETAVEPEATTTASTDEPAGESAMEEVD

[10] = biological target: Heat shock protein HSP 90-alpha (Homo sapiens, UniProt P07900); assay type: functional, organism-based
[11] = mammalian cell viability loss – Alamar Blue, dry powder, cytotoxicity control for antifungal single agent project, dose response (AID 602188); assay type: functional, cell-based
[12] = biological target: T2, Serine/threonine-protein phosphatase (Candida dubliniensis (strain CD36 / CBS 7987 / NCPF 3949 / NRRLY-17841) (Yeast), UniProt B9W6M3); test: Fluorescence Cell-Based Secondary Assay to Identify Inhibitors of Calcineurin. [Related pubchem assays (depositor defined):AID1979, AID2007]; assay type: functional
T2 sequence (B9W6M3 whole entry): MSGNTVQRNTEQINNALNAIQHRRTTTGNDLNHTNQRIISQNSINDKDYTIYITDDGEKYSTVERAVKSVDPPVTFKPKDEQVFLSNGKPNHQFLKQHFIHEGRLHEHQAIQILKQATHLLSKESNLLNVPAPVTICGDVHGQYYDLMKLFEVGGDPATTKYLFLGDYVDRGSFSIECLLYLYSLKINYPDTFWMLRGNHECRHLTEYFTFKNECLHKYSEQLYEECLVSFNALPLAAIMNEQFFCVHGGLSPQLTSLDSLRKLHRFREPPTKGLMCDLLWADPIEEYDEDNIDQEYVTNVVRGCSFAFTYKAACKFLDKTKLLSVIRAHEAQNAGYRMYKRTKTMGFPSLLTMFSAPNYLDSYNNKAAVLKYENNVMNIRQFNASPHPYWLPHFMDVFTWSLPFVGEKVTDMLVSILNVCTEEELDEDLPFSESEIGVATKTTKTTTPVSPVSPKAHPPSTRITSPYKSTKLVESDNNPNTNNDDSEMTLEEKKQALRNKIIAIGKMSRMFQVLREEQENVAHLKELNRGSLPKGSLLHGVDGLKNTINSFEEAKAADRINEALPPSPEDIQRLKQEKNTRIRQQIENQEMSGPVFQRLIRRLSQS

[13] = biological target: T2, Serine/threonine-protein phosphatase; test: blockers of CaCl2-induced CDRE-lacZ signaling – S. cerevisiae, luminescence, secondary, dose response (AID 2388); assay type: functional, cell-based;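 also: yeast reporter cells carrying a calcineurin-responsive lacZ construct stimulated with calcium chloride; luminescent beta-galactosidase reporter signal in whole cells rather than isolated phosphatase activity; potency for inhibition where a drop in reporter signal means calcineurin blockade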
[14] = fluconazole-exposed Candida albicans growth modulators – fluorescence, retest, confirmation (AID 2467); assay type: functional, cell-based
[15] = tested on: A-375; test: MITF: Counter assay: A375 proliferation Measured in Cell-Based System Using Plate Reader - 2084-03_Inhibitor_Dose_DryPowder_Activity. [Related pubchem assays (depositor defined):AID488944]; assay type: functional; conditions: Homo sapiens
[16] = biological target: Luciferin 4-monooxygenase (Photinus pyralis, UniProt P08659); test: inhibition of purified Photinus pyralis luciferase – biochemical, luminescence, dose response (AID 1891)
Luciferin 4-monooxygenase, sequence (P08659 whole entry): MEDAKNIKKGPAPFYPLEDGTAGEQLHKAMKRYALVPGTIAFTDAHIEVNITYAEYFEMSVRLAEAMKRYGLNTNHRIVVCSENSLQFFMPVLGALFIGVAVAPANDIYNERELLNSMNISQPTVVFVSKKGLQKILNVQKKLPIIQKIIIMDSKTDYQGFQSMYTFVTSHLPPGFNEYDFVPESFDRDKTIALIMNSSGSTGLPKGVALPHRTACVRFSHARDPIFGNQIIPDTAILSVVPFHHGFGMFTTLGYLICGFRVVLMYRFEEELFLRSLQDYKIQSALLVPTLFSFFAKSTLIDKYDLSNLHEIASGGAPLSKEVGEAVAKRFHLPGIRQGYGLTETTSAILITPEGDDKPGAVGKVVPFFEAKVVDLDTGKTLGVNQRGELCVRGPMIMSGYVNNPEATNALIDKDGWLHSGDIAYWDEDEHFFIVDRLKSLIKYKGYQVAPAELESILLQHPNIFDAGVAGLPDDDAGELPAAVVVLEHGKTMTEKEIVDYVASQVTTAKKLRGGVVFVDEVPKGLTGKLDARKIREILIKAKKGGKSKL

[17] = biological target: T3, Microphthalmia-associated transcription factor (Homo sapiens, UniProt O75030); test: reducers of TRPM1 reporter luminescence, concentration series – cell-based, SK-MEL-5, cherry-picked, set 3, MITF inhibitor project, dose response (AID 493073); assay type: functional;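 also: SK-MEL-5 melanoma cells with luciferase driven by the MITF target TRPM1 promoter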
T3 sequence (O75030 whole entry): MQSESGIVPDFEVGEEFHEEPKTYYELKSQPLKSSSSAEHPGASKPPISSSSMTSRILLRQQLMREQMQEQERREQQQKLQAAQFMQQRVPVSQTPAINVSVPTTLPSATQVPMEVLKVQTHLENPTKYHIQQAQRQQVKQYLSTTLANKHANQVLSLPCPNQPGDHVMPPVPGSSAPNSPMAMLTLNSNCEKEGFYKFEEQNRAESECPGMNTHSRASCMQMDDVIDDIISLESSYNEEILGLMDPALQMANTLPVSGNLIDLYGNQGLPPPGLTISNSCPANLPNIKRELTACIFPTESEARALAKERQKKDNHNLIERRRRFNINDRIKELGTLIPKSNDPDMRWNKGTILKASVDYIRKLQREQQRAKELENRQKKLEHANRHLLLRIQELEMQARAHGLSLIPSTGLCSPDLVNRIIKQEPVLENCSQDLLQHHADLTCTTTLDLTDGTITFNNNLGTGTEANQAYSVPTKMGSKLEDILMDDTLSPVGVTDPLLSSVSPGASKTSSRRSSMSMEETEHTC

[18] = Luminescence Cell-Based Dose Confirmation HTS to Identify Inhibitors of Platelet Dense Granule Release. [Related pubchem assays: 1663 (Primary HTS), 1678 (Summary of Project)]; assay type: functional
[19] = biological target: Cytochrome P450 2C19 (Homo sapiens, UniProt P33261); test: Cytochrome panel assay with activity outcomes. Panel member name: p450-cyp2c19 Compounds with AC50 equal or less than 10 uM are considered active; assay type: functional
Cytochrome P450 2C19, sequence (P33261 whole entry): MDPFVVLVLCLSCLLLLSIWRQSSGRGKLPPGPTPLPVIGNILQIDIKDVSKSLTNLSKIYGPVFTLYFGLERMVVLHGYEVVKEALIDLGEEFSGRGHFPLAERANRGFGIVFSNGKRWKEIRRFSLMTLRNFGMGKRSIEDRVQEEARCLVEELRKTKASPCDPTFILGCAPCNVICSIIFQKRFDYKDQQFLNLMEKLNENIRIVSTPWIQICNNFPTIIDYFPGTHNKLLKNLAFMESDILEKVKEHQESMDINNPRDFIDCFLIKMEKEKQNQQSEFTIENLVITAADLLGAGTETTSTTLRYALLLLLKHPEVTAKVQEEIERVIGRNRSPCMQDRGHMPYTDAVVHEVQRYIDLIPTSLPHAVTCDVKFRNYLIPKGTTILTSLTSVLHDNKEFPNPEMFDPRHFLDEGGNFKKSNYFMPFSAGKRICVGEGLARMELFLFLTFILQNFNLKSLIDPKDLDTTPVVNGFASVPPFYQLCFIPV

[20] = biological target: T4, Cytochrome P450 1A2 (Homo sapiens, UniProt P05177);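 also: PubChem cytochrome P450 panel assay, CYP1A2 panel member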
T4 sequence (P05177 whole entry): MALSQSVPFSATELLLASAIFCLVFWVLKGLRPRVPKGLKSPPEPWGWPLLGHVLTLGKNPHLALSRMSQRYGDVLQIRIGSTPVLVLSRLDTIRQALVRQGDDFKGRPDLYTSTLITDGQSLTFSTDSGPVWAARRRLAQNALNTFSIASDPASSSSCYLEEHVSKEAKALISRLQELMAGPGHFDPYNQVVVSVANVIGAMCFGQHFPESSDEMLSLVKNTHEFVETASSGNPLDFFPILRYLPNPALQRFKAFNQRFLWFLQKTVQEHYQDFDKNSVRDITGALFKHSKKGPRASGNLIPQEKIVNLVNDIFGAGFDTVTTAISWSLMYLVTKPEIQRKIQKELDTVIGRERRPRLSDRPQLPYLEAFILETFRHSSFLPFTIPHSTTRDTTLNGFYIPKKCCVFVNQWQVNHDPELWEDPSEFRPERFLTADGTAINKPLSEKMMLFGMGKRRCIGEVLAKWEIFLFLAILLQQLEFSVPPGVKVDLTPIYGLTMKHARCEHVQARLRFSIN

[21] = biological target: Cytochrome P450 3A4 (Homo sapiens, UniProt P08684);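 also: CYP3A4 tested as one member of a cytochrome P450 panel screen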
Cytochrome P450 3A4, sequence (P08684 whole entry): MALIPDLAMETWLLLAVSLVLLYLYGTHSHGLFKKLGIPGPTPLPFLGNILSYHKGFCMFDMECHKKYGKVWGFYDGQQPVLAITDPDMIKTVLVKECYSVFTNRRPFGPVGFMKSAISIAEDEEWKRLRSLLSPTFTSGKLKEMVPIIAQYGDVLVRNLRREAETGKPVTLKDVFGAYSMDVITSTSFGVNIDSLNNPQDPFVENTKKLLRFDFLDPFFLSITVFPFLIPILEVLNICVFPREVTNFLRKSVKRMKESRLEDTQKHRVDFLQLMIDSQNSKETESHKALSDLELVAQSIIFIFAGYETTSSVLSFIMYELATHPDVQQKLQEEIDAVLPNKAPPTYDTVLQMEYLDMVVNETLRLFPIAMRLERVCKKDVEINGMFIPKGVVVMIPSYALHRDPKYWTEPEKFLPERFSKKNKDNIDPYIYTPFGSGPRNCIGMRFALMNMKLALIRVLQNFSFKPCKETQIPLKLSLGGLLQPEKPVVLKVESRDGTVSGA

[22] = biological target: T1, Cytochrome P450 2D6; remark: listed apart in the source

Structure (SMILES): CC(C)(C)c1ccc(-c2noc(CCC(=O)N3CCOCC3)n2)cc1
IC50 [1]: 69.2 µM (inactive) | IC50 [2]: > 80 µM (inactive) | IC50 [3]: 24.9 µM (inactive) | IC50 [4]: 46.7 µM (inactive)

AC50 [5]: 23.5 µM (active) | AC50 [6]: 63.7 µM (active) | AC50 [7]: 20 µM (inconclusive)
Structure (SMILES): C=CCNc1oc(/C=C/c2ccccc2)nc1C#N

Structure (SMILES): O=C(Nc1nnc(-c2ccc3c(c2)CCCC3)o1)c1ccc(Cl)cc1Cl
EC50 [8]: > 160 µM (inactive) | EC50 [9]: 1.74 µM (active) | AC50 [10]: 2.34 µM (active) | AC50 [11]: 11.5 µM (active) | EC50 [12]: 4.66 µM (active) | EC50 [13]: 8.1 µM (active) | EC50 [14]: 0.117 µM (active)

Structure (SMILES): N=C(NOC(=O)c1ccccc1Cl)c1ccccn1
AC50 [15]: 42.8 µM (active) | EC50 [16]: 3.94 µM (active) | AC50 [17]: 8.87 µM (active) | EC50 [18]: 8.3 µM (active)

AC50 [19]: inactive | AC50 [20]: inactive | AC50 [21]: inactive | AC50 [22]: inactive
Structure (SMILES): O=C(O)c1cc(-c2ccc(F)cc2F)ccc1O [DIFLUNISAL]
